Values of other authors, collected in patent publication US11866789B2, “Targeted therapies for cancer” (THE TRANSLATIONAL GENOMICS RESEARCH INSTITUTE, priority 2015, dated 2024).

Columns and labels:
[1] = test system: advanced biliary tract cancer or hepatobiliary cancer; settings: 17 patients evaluated
[2] = test system: Cell line models expressing NRG1 fusions; settings: See Reference 29

In the case of `CS(=O)(=O)CCNCc1ccc(-c2ccc3ncnc(Nc4ccc(OCc5cccc(F)c5)c(Cl)c4)c3c2)o1` [Lapatinib], the objective response [1] is listed as “no objective response” and the “sensitivity of NRG1 fusion cell line models” value [2] is listed as “increased sensitivity”.
